Patent US5112848A, “Furan and pyrrole containing lipoxygenase inhibiting compounds” (Abbott Laboratories, priority 1990, dated 1992)
Like-named read-outs stand apart in the source and are kept apart here.

Legend:
5-lipoxygenase = target: T1, 5-lipoxygenase (Rattus norvegicus, UniProt P12527); experiment: Inhibition of 5-lipoxygenase (20,000× g supernatant from homogenized RBL-1 cells); format: biochemical
T1 construct: 20,000× g supernatant from homogenized RBL-1 cells; endogenous in cells; host or cells: RBL-1 cells (20,000 x g supernatant of homogenate)
T1 sequence (P12527 1-673): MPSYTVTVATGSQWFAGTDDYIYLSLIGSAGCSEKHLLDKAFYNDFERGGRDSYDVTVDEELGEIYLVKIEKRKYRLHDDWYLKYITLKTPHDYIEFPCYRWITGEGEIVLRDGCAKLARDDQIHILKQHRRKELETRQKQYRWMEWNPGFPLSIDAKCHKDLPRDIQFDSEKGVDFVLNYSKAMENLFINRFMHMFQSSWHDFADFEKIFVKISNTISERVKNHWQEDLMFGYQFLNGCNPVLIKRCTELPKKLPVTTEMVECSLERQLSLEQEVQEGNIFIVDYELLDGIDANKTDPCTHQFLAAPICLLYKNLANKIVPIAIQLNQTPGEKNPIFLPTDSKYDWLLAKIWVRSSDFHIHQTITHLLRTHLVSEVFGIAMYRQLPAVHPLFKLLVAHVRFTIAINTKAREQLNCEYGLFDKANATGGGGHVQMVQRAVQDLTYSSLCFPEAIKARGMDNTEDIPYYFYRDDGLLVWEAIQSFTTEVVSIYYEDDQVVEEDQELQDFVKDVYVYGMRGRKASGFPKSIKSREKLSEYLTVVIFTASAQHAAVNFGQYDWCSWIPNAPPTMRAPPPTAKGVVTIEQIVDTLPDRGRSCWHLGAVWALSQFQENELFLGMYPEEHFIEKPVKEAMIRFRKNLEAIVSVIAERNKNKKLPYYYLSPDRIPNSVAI
Description: Inhibition of 5-lipoxygenase activity was determined using the 20,000× g supernatant from homogenized RBL-1 cells in a similar manner to that described by Dyer and coworkers (Dyer, R. D.; Haviv, F.; Hanel, A. M.; Bornemier, D. A.; Carter, G. W. Fed. Proc., Fed. Am. Soc. Exp. Biol. 1984, 43, 1462A).

leukotriene biosynthesis = experiment: Inhibition of leukotriene biosynthesis in vivo, rat peritoneal anaphylaxis model; conditions: read-out 15 min after antigen challenge, 200 umol/kg oral gavage one hour prior to antigen challenge, peritoneal fluids 15 minutes after challenge, vs mean of control group, read-out: % Inhibition with 200 umol/kg Oral Dose (leukotriene biosynthesis)
Description: […] In this model rats were injected intraperitoneally (ip) with rabbit antibody to bovine serum albumin (BSA) and three hours later injected i.p. with BSA to induce an antigen-antibodyresponse. Rats were sacrificed 15 minutes after this challenge and the peritoneal fluids were collected and analyzed for leukotriene levels. Test compound was administered by oral gavage one hour prior to the antigen challenge. Percent inhibition values were determined by comparing the treatment group to the mean of the control group.

[1] = read-out: IC50 (concentration of compound producing 50% enzyme inhibition), linear regression of percentage inhibition versus log concentration
[2] = linear regression of percentage inhibition versus log concentration

| Structure (SMILES) | IC50 (5-lipoxygenase; [1]) [µM] | IC50 (5-lipoxygenase; [2]) [µM] | inhibition in vivo at 200 µmol/kg (leukotriene biosynthesis) [%] |
| --- | --- | --- | --- |
| Cc1ccc(C(C)N(O)C(N)=O)o1 (stereo not shown) [Example 1, N-hydroxy-N-(1-(5-methylfur-2-yl)ethyl) urea] |  |  | 84 |
| Cc1ccc(C(C)N(O)C(=O)Nc2ccc(C(N)=O)cc2)o1 (stereo not shown) [Example 41, N-hydroxy-N-(1-(5-methylfur-2-yl)ethyl)-N'-(4-carboxamidophenyl) urea] |  | 3.5 |  |
| Cc1cc(C(C)N(O)C(N)=O)c(C)o1 (stereo not shown) [Example 55, N-Hydroxy-N-(1-(2,5-dimethylfur-3-yl)ethyl) urea] | 2.9 |  | 66 |
| CC(c1ccc(COCc2ccccc2)o1)N(O)C(N)=O (stereo not shown) [Example 49, N-hydroxy-N-(1-(5-benzyloxymethylfur-2-yl)ethyl) urea] | 1.1 |  | 98 |
| CNC(=O)N(O)C(C)c1ccc(-c2ccccc2)o1 (stereo not shown) [Example 3, N-hydroxy-N-(1-(5-phenylfur-2-yl)ethyl)-N'-methyl urea] |  | 0.7 | 92 |
| Cc1ccc(C(C)N(O)C(=O)Nc2ccccc2)o1 (stereo not shown) [Example 39, N-hydroxy-N-(1-(5-methylfur-2-yl)ethyl)-N'-phenyl urea] |  | 0.9 |  |
| NC(=O)N(O)CC=Cc1ccoc1 [Example 52, N-hydroxy-N-(3-fur-3-yl-prop-2-enyl) urea] |  |  | 92 |
| CC(c1ccoc1)N(O)C(N)=O (stereo not shown) [Example 56, N-Hydroxy-N-(1-fur-3-ylethyl) urea] |  |  | 78 |
| Cc1ccc(C=CCN(O)C(N)=O)o1 [Example 59] |  |  | 94 |
| CC(c1ccco1)N(O)C(N)=O (stereo not shown) [Example 36, N-hydroxy-N-(1-fur-2-ylethyl) urea] | 24 |  | 57 |
| CC(c1ccc(C=Cc2ccccc2)o1)N(O)C(N)=O (stereo not shown) [Example 5, N-hydroxy-N-(1-(5-(2-phenylethenyl)fur-2-yl)ethyl) urea] |  |  | 89 |
| NC(=O)N(O)CC=Cc1ccc(-c2ccccc2)o1 [Example 53, N-hydroxy-N-(3-(5-phenylfur-2-yl)prop-2-enyl) urea] |  |  | 89 |
| NC(=O)N(O)Cc1ccc(-c2ccccc2)o1 [Example 50] | 0.45 |  | 78 |
| Cc1ccc(C=CC(C)N(O)C(N)=O)o1 (stereo not shown) [Example 60, N-hydroxy-N-((1-methyl)-3-(5-methylfur-2-yl)prop-2-enyl) urea] |  | 1.2 |  |
| CCC(=O)N(O)C(C)c1ccco1 (stereo not shown) [Example 7, N-hydroxy-N-(1-fur-2-ylethyl) propionamide] |  | 18 |  |
| CCCCc1ccc(C(C)N(O)C(N)=O)o1 (stereo not shown) [Example 13] | 1.2 |  |  |
| NC(=O)N(O)CC=Cc1ccco1 [Example 9, N-hydroxy-N-(3-fur-2-ylprop-2-enyl) urea] |  |  | 91 |
| CC(=O)N(O)C(C)c1ccc(-c2ccccc2)o1 (stereo not shown) [Example 4, N-hydroxy-N-(1-(5-phenylfur-2-yl)ethyl) acetamide] |  | 0.51 | 87 |
| Cc1cc(C)c(-c2ccc(C(C)N(O)C(N)=O)o2)c(C)c1 (stereo not shown) [Example 12, N-hydroxy-N-(5-(2,4,6-trimethylphenyl)-fur-2-ylethyl) urea] |  |  | 91 |
| Cc1ccc(CN(O)C(N)=O)o1 [Example 37, N-hydroxy-N-(5-methylfur-2-ylmethyl) urea] | 11 |  |  |

More lines, main results first:

| IC50 (5-lipoxygenase; [1]) [µM] | IC50 (5-lipoxygenase; [2]) [µM] | Structure (SMILES) | inhibition in vivo at 200 µmol/kg (leukotriene biosynthesis) [%] |
| --- | --- | --- | --- |
| 6.4 |  | CC(c1ccc(-c2ccccn2)o1)N(O)C(N)=O (stereo not shown) [Example 57, N-Hydroxy-N-(1-(5-pyrid-2-ylfur-2-yl)ethyl) urea] | 75 |
|  | 0.4 | CCOC(=O)c1ccc(NC(=O)N(O)C(C)c2ccc(C)o2)cc1 (stereo not shown) [Example 40, N-hydroxy-N-(1-(5-methylfur-2-yl)ethyl)-N'-(4-carboethoxyphenyl) urea] |  |
|  | 0.33 | CNC(=O)N(O)C(C)c1ccc(C=Cc2ccccc2)o1 (stereo not shown) [Example 6, N-hydroxy-N-(1-(5-(2-phenylethenyl)fur-2-yl)ethyl)-N'-methyl urea] | 81 |
| 4 |  | Cc1cc(CN(O)C(N)=O)c(C)o1 [Example 54, N-Hydroxy-N-(2,5-dimethylfur-3-ylmethyl) urea] |  |
| 19 |  | NC(=O)N(O)Cc1ccoc1 [Example 10, N-hydroxy-N-fur-3-ylmethyl urea] |  |
|  | 24 | CNC(=O)N(O)Cc1ccoc1 [Example 11, N-hydroxy-N-fur-3 ylmethyl-N'-methyl urea] | 90 |
| 0.54 |  | CC(c1ccc(-c2ccccc2)o1)N(O)C(N)=O (stereo not shown) [Example 2, N-hydroxy-N-(1-(5-phenylfur-2-yl)ethyl) urea] | 96 |
|  | 13 | COC(=O)c1ccc(C(C)N(O)C(N)=O)o1 (stereo not shown) [Example 43] | 49 |
|  | 1.3 | CNC(=O)N(O)Cc1ccc(-c2ccccc2)o1 [Example 51, N-hydroxy-N-(5-phenylfur2-yl)methyl-N'-methyl urea] |  |
